The results in this text go back to ChEMBL document CHEMBL4177689, “In silico identification and in vivo characterization of small molecule therapeutic hypothermia mimetics” (Bioorg Med Chem, 2017).

For series [1], the species on record is Rattus norvegicus. In words: Activation of CIRBP protein expression in rat R28 cells at 10 uM at 37 degC after 4 days by Western blot. It is filed as functional, cell-based. On the technique in general: Immunoblotting shows a protein as a band on a membrane.
Series [2] is described as follows: Cytotoxicity against rat R28 cells assessed as reduction in cell viability at 10 uM after 4 days by MTS assay. Format: cell-based. As to conditions: 96 h.
The test system of series [3] is Rattus norvegicus. As to the kind of experiment: Up regulation of CIRBP protein expression in Sprague-Dawley albino rat central nervous system at 20 nmol/kg, ip measured after 4 days post dose by Western blot analysis. It is filed as functional, organism-based.
Series [4] relates to Rattus norvegicus. In words: Up regulation of CIRBP protein expression in Sprague-Dawley albino rat brain cortex at 20 nmol/kg, ip measured after 4 days post dose by Western blot analysis. It is filed as functional, organism-based.
For series [5], the system named is Rattus norvegicus. As to the kind of experiment: Up regulation of CIRBP protein expression in Sprague-Dawley albino rat pancreas at 20 nmol/kg, ip measured after 4 days post dose by Western blot analysis. Format: functional, organism-based.
Series [6] deals with Rattus norvegicus. As to the kind of experiment: Up regulation of CIRBP protein expression in Sprague-Dawley albino rat lung at 20 nmol/kg, ip measured after 4 days post dose by Western blot analysis. It is filed as functional, organism-based.
Series [7] relates to Rattus norvegicus. In words: Up regulation of CIRBP protein expression in Sprague-Dawley albino rat colon at 20 nmol/kg, ip measured after 4 days post dose by Western blot analysis. It is filed as functional, organism-based.
In series [8] the test system is Rattus norvegicus. In words: Up regulation of CIRBP protein expression in Sprague-Dawley albino rat subcutaneous fat tissue at 20 nmol/kg, ip measured after 4 days post dose by Western blot analysis. It is filed as functional, organism-based.
The subject of series [9] is Rattus norvegicus. In words: Up regulation of CIRBP protein expression in Sprague-Dawley albino rat testis at 20 nmol/kg, ip measured after 4 days post dose by Western blot analysis. Format: functional, organism-based.
Series [10] relates to Rattus norvegicus. In words: Up regulation of CIRBP protein expression in Sprague-Dawley albino rat retina at 20 nmol/kg, ip measured after 4 days post dose by Western blot analysis. It is filed as functional, organism-based.
In series [11] the test system is Rattus norvegicus. As to the kind of experiment: Up regulation of CIRBP protein expression in Sprague-Dawley albino rat heart at 20 nmol/kg, ip measured after 4 days post dose by Western blot analysis. Format: functional, organism-based.
Series [12] is described as follows: Cytotoxicity against rat R28 cells assessed as reduction in cell viability at 250 uM after 4 days by MTS assay. It is filed as cell-based. The following applies: 96 h. (In general: Tetrazolium assays rely on reduction of a dye to a coloured formazan, in cell work by metabolically active cells.)

Calls of active or inactive are those of the source. The calls are words filed in the database; no cut-off is given here.

Regarding `Oc1ccc(-c2cn(-c3ccc(O)c(C(F)(F)F)c3)nn2)cc1`, the result in [1] was Active.
As to `C=CCn1cnc2c(SCC(=O)OC)nc(N)nc21`, the outcome in series [1] was inactive.
In the case of `COCCn1cnc2c(SCC(=O)OC)nc(N)nc21`, the result in series [1] was inactive.
In the case of `COc1cccc2c1C(=O)c1c(O)c3c(c(O)c1C2=O)CC(O)(/C(C)=N/O)CC3CC1CC(N)C(O)C(C)O1` (stereo not given), the Activity entry in [2] is recorded as “Toxic”.
On to `COC(=O)CSc1nc(N)nc2c1ncn2Cc1ccccc1`, for which, in [1], the outcome was Active.
Turning to `Oc1cccc(-c2cn(-c3ccc(O)c(F)c3)nn2)c1`, in [1], the result was Active.
Regarding `Oc1cc(NCC2CCCCC2)c(O)cc1CNC1CCCCC1`, the outcome in [1] was inactive.
Turning to `O=c1c(O)cccc2cc(O)c(O)c(O)c12` [PURPUROGALLIN], the Activity result in series [2] is listed as “Toxic”.
Regarding `Cc1cc(O)ccc1-n1cc(-c2cccc(O)c2)nn1`, the result in [1] was inactive.
For the compound `O=C(/C=C/c1ccc(O)c(O)c1)OC1C(O)CC(OC(=O)/C=C/c2ccc(O)c(O)c2)(C(=O)O)CC1O` (stereo not given), in series [2], the Activity entry is “Toxic”.
Take `Cc1cc(-n2cc(-c3ccc(O)cc3)nn2)ccc1O`: the outcome in series [1] was Active.
On the same count and under the same terms, in the case of `NC(=O)Oc1cccc(OC(N)=O)c1` it was “inactive”; in that of `COC(=O)CSc1nc(N)nc2c1ncn2CCO`, “inactive”; in that of `OCc1ncccc1O`, “inactive”.
Regarding `CC1(C)N=C(N)N=C(N)N1c1cccc(CN)c1`, the result in [1] was inactive.
Same read-out and setting: in the case of `Nc1nc(SCC(=O)O)c2ncn(Cc3ccccc3)c2n1` it was “inactive”; in that of `CC(=O)N1C(=O)C2(NCC(C)N2)c2ccccc21` (stereo not given), “inactive”; in that of `Nc1ncnc2c1ncn2[C@@H]1O[C@H](CO)[C@H](O)[C@@H]1N`, “inactive”.
For `COC(=O)CSc1nc(N)nc2c1ncn2CC1CC1`, in series [1], the outcome was inactive.
`O=C(NO)[C@@H](Cc1ccccc1)NS(=O)(=O)c1ccc(-n2cc(-c3ccc(Oc4ccccc4)cc3)nn2)cc1`: the Activity entry in [2] is recorded as “Toxic”.
For `O=C(O)c1cc(-n2cc(-c3cccc(O)c3)nn2)ccc1O`, the outcome in series [1] was inactive.
For `COC(=O)CSc1nc(N)nc2c1ncn2Cc1ccc(OC)cc1`, in series [1], the result was inactive.
On the same count and under the same terms, as for `COC(=O)C1C[C@@H](O)[C@@H](O)[C@@H](O)C1` (stereo not given in full), the entry is “inactive”.
For the compound `CCN(CC)CCn1cnc2c(SCC(=O)O)nc(N)nc21`, the outcome in series [3], in series [4] and in series [10] was inactive. Moreover, the result in series [5], in series [6], in series [7], in series [8], in series [9] and in series [11] was Active. In addition, in series [1], the result was Active. Also, in series [12], the Activity entry is listed as “Non-Toxic”.
For `N=C(N)NC(=N)Nc1ccc(O)cc1`, the outcome in series [1] was inactive.
